The source of these data is patent publication US20220133651A1, “TREATMENT OF PITT-HOPKINS SYNDROME” (HEALX LTD, priority 2019, published 2022).

For data set [1] the following is noted: cited from earlier work.
Data set [2] deals with Tcf4+/− mice. Put plainly: Fear conditioning (test of learning and memory). The data set is classed as in vivo, mouse. The note with it: chronic treatment of Tcf4+/− mice. An excerpt:
The Tcf4+1− mouse model has been developed to mimic PTHS and therefore assess potential treatments. The mice have deficits in hippocampus-dependent learning and memory, spatial working memory, sociability, stereotypy, hyperactivity and daily living paradigms. […] Mice were purchased from The Jackson Laboratory and maintained on a C57BL/6 background. They were raised on a 12:12 light:dark cycle with ad libitum access to food and water. Controls consisted of TCF4+1+. All mice used were heterozygous for the Tcf4 mutation because homozygous mutations result in embryonic/post-partum lethality. There were four treatment groups per compound in the study with 10 male mice used per treatment group (all at 14 weeks of age): Group 1: wild-type littermate mice treated with vehicle (WT+veh); Group 2: Tcf4+/−KO mice treated with vehicle (Tcf4+1−+veh), Group 3: WT+drug; and Group 4: Tcf4+1−+drug. Tcf4+/− mice show reduced freezing in the context of clued fear conditioning test indicating hippocampus-dependent memory and learning deficiency. […] Data were analysed by two-way analysis of variance (ANOVA) followed by post-test comparisons where appropriate using Tukey's Multiple Comparison Test, Data are represented as the mean and standard error of the mean (SEM).

For data set [3], the system named is Tcf4+/− mice. Put plainly: Open field (measure of hyperactivity). It is filed as in vivo, mouse. Conditions: chronic treatment of Tcf4+/− mice. An excerpt:
The Tcf4+1− mouse model has been developed to mimic PTHS and therefore assess potential treatments. The mice have deficits in hippocampus-dependent learning and memory, spatial working memory, sociability, stereotypy, hyperactivity and daily living paradigms. […] Mice were purchased from The Jackson Laboratory and maintained on a C57BL/6 background. They were raised on a 12:12 light:dark cycle with ad libitum access to food and water. Controls consisted of TCF4+1+. All mice used were heterozygous for the Tcf4 mutation because homozygous mutations result in embryonic/post-partum lethality. There were four treatment groups per compound in the study with 10 male mice used per treatment group (all at 14 weeks of age): Group 1: wild-type littermate mice treated with vehicle (WT+veh); Group 2: Tcf4+/−KO mice treated with vehicle (Tcf4+1−+veh), Group 3: WT+drug; and Group 4: Tcf4+1−+drug. The open-field apparatus was used to test hyperactivity. […] The number of squares entered by the whole body (locomotor activity) was counted. The movement of the mouse around the field was recorded with a video tracking device for 3 min (version NT4.0, Viewpoint). Data were analysed by two-way analysis of variance (ANOVA) followed by post-test comparisons where appropriate using Tukey's Multiple Comparison Test, Data are represented as the mean and standard error of the mean (SEM).

The test system of data set [4] is Tcf4+/− mice. Put plainly: Nesting (test of daily living). The data set is classed as in vivo, mouse. Conditions: chronic treatment of Tcf4+/− mice. The source says: The Tcf4+1− mouse model has been developed to mimic PTHS and therefore assess potential treatments. The mice have deficits in hippocampus-dependent learning and memory, spatial working memory, sociability, stereotypy, hyperactivity and daily living paradigms. […] Mice were purchased from The Jackson Laboratory and maintained on a C57BL/6 background. They were raised on a 12:12 light:dark cycle with ad libitum access to food and water. Controls consisted of TCF4+1+. All mice used were heterozygous for the Tcf4 mutation because homozygous mutations result in embryonic/post-partum lethality. There were four treatment groups per compound in the study with 10 male mice used per treatment group (all at 14 weeks of age): Group 1: wild-type littermate mice treated with vehicle (WT+veh); Group 2: Tcf4+/−KO mice treated with vehicle (Tcf4+1−+veh), Group 3: WT+drug; and Group 4: Tcf4+1−+drug. The test was performed in individual cages. Normal bedding covered the floor to a depth of 0.5 cm. […] Mice were placed individually into the nesting cages 1 hr. before the dark phase, and the results were assessed the next morning. Nest building was scored on a 5 point scale. […] Data were analysed by two-way analysis of variance (ANOVA) followed by post-test comparisons where appropriate using Tukey's Multiple Comparison Test, Data are represented as the mean and standard error of the mean (SEM).

Data set [5] concerns Tcf4+/− mice. Put plainly: Self-grooming (assessment of stereotypy). The data set is classed as in vivo, mouse. The note with it: chronic treatment of Tcf4+/− mice. An excerpt:
The Tcf4+1− mouse model has been developed to mimic PTHS and therefore assess potential treatments. The mice have deficits in hippocampus-dependent learning and memory, spatial working memory, sociability, stereotypy, hyperactivity and daily living paradigms. […] Mice were purchased from The Jackson Laboratory and maintained on a C57BL/6 background. They were raised on a 12:12 light:dark cycle with ad libitum access to food and water. Controls consisted of TCF4+1+. All mice used were heterozygous for the Tcf4 mutation because homozygous mutations result in embryonic/post-partum lethality. There were four treatment groups per compound in the study with 10 male mice used per treatment group (all at 14 weeks of age): Group 1: wild-type littermate mice treated with vehicle (WT+veh); Group 2: Tcf4+/−KO mice treated with vehicle (Tcf4+1−+veh), Group 3: WT+drug; and Group 4: Tcf4+1−+drug. […] Usually in a sitting position, the mouse will lick its fur, groom with the forepaws, or scratch with any limb. Often the mouse will mix all of these grooming behaviors. […] Data were analysed by two-way analysis of variance (ANOVA) followed by post-test comparisons where appropriate using Tukey's Multiple Comparison Test, Data are represented as the mean and standard error of the mean (SEM).

In data set [6] the test system is Tcf4+/− mice. Put plainly: Sociability/Partition test (assessment of social anxiety). The data set is classed as in vivo, mouse. The note with it: chronic treatment of Tcf4+/− mice. An excerpt: The Tcf4+1- mouse model has been developed to mimic PTHS and therefore assess potential treatments. The mice have deficits in hippocampus-dependent learning and memory, spatial working memory, sociability, stereotypy, hyperactivity and daily living paradigms. […] Mice were purchased from The Jackson Laboratory and maintained on a C57BL/6 background. They were raised on a 12:12 light:dark cycle with ad libitum access to food and water. Controls consisted of TCF4+1+. All mice used were heterozygous for the Tcf4 mutation because homozygous mutations result in embryonic/post-partum lethality. There were four treatment groups per compound in the study with 10 male mice used per treatment group (all at 14 weeks of age): Group 1: wild-type littermate mice treated with vehicle (WT+veh); Group 2: Tcf4+/-KO mice treated with vehicle (Tcf4+1-+veh), Group 3: WT+drug; and Group 4: Tcf4+1-+drug. In the three-chambered sociability task, a subject mouse was evaluated for its exploration of a novel social stimulus (novel mouse). […] The time spent exploring the novel mice was scored as exploration ratio. Data were analysed by two-way analysis of variance (ANOVA) followed by post-test comparisons where appropriate using Tukey's Multiple Comparison Test, Data are represented as the mean and standard error of the mean (SEM).

For data set [7], the system named is Tcf4+/− mice. Put plainly: Test of Force (hind limb grip strength). It is filed as in vivo, mouse. The note with it: chronic treatment of Tcf4+/− mice. The source says: The Tcf4+1− mouse model has been developed to mimic PTHS and therefore assess potential treatments. The mice have deficits in hippocampus-dependent learning and memory, spatial working memory, sociability, stereotypy, hyperactivity and daily living paradigms. […] Mice were purchased from The Jackson Laboratory and maintained on a C57BL/6 background. They were raised on a 12:12 light:dark cycle with ad libitum access to food and water. Controls consisted of TCF4+1+. All mice used were heterozygous for the Tcf4 mutation because homozygous mutations result in embryonic/post-partum lethality. There were four treatment groups per compound in the study with 10 male mice used per treatment group (all at 14 weeks of age): Group 1: wild-type littermate mice treated with vehicle (WT+veh); Group 2: Tcf4+/−KO mice treated with vehicle (Tcf4+1−+veh), Group 3: WT+drug; and Group 4: Tcf4+1−+drug. Tcf4+/− mice show a significant deficit in hindlimb strength (not forelimb) when compared with WT mice. Neuromuscular function of the hindlimbs was tested with a grip strength meter (San Diego Instruments). […] The force applied to the grid at the moment the grasp was released was recorded. Data were analysed by two-way analysis of variance (ANOVA) followed by post-test comparisons where appropriate using Tukey's Multiple Comparison Test, Data are represented as the mean and standard error of the mean (SEM).

In data set [8] the test system is Tcf4+/− mice. Put plainly: Dose response experiments in behavioural tests (Study 2). The data set is classed as in vivo, mouse. As for the experimental part: Dose response experiments were conducted following the protocol described above. Amitriptyline rescued all the behavioral tests at 5 and 10 mg/kg.

“Also recorded” adds a separate entry of the source. Where a name gives a salt, the structure may show the parent alone.

With `CN(C)CCC=C1c2ccccc2CCc2ccccc21` [amitriptyline HCL, 3-(10,11-dihydro-5H-dibenzo [ad]cycloheptene-5-ylidene)-N,N-dimethyl-1-propanamine hydrochloride], in data set [1], the solubility in water entry was “freely soluble”.
`CN(C)CCC=C1c2ccccc2CCc2ccccc21` [amitriptyline]: the “fear conditioning (learning and memory)” value with Tcf4+/− mice [2] is “significantly improved; also recorded: rescuing”. In addition, the “open field (hyperactivity)” value in the data set with Tcf4+/− mice [3] was “significantly improved; also recorded: rescuing”. Besides, the “nesting (tests of daily living)” value with Tcf4+/− mice [4] is “significantly improved; also recorded: rescuing”. Also, in the data set with Tcf4+/− mice [5], the “self-grooming (stereotypy)” value is listed as “significantly improved; also recorded: rescuing”. In the data set on Tcf4+/− mice [6], the “sociability (social anxiety)” value is recorded as “significantly improved; also recorded: rescuing”. Further, the “test of force (strength)” value in the data set on Tcf4+/− mice [7] is given as “significantly improved; also recorded: rescuing”. For the same compound, the “all the behavioral tests (dose response)” value in the data set on Tcf4+/− mice [8] (5 mg/kg) and with Tcf4+/− mice [8] (10 mg/kg) was “rescued” throughout.
